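Compound exposure: 48 hours, 5 concentrations, 96-well plates. GI50 marks 50% less growth.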 Activity calls are given as the source filed them. No stated cut-off is given here; in the data, active = GI50 up to about 1.1 µM and inactive = higher.
Experiments:
Experiment in all cases: NCI-60 cell line screen, 48 h
[1] = test system: MDA-N
[2] = test system: NCI-H23
[3] = test system: MCF7
[4] = test system: LOX IMVI
[5] = test system: SF-539
[6] = test system: HCT-15
[7] = test system: NCI-H460
[8] = test system: HL-60
[9] = test system: TK-10
[10] = test system: U-251
[11] = test system: OVCAR-3
[12] = test system: SNB-19
[13] = test system: CAKI-1
[14] = test system: A549
[15] = test system: Hs-578T
[16] = test system: RPMI-8226
[17] = test system: MOLT-4
[18] = test system: NCI-H522
[19] = test system: M14
[20] = test system: SR

SMILES	GI50 [1]	GI50 [2]	GI50 [3]	GI50 [4]	GI50 [5]	GI50 [6] [µM]	GI50 [7]	GI50 [8]	GI50 [9]	GI50 [10]	GI50 [11]	GI50 [12]	GI50 [13]	GI50 [14]	GI50 [15]	GI50 [16]	GI50 [17]	GI50 [18]	GI50 [19]	GI50 [20]
O=c1cc(N2CCCC2)[nH]c(=O)n1-c1ccc(Cl)cc1	> 100 µM (inactive)	> 100 µM (inactive)	> 100 µM (inactive)	> 100 µM (inactive)	> 100 µM (inactive)	> 100	> 100 µM (inactive)	> 100 µM (inactive)	> 100 µM (inactive)	> 100 µM (inactive)	> 100 µM (inactive)	> 100 µM (inactive)	> 100 µM (inactive)	> 100 µM (inactive)	> 100 µM (inactive)	> 100 µM (inactive)	> 100 µM (inactive)	> 100 µM (inactive)	> 100 µM (inactive)	–
CCn1c(CCCc2nc3c(=O)n(C)c(=O)n(C)c3[nH]2)nc2c1c(=O)n(C)c(=O)n2C	> 100 µM (inactive)	> 100 µM (inactive)	> 100 µM (inactive)	> 100 µM (inactive)	14.9 µM (inactive)	> 100	> 100 µM (inactive)	77.8 µM (inactive)	> 100 µM (inactive)	> 100 µM (inactive)	> 100 µM (inactive)	> 100 µM (inactive)	> 100 µM (inactive)	> 100 µM (inactive)	> 100 µM (inactive)	> 100 µM (inactive)	> 100 µM (inactive)	> 100 µM (inactive)	> 100 µM (inactive)	–
CCN1CC2=C(N=c3s/c(=C\c4ccc(Cl)cc4)c(=O)n3C2c2ccc(Cl)cc2)/C(=C/c2ccc(Cl)cc2)C1 (configuration not stated)	> 100 µM (inactive)	63.1 µM (inactive)	> 100 µM (inactive)	> 100 µM (inactive)	–	> 100	> 100 µM (inactive)	> 100 µM (inactive)	18.9 µM (inactive)	20.8 µM (inactive)	> 100 µM (inactive)	44.4 µM (inactive)	16.4 µM (inactive)	> 100 µM (inactive)	25.8 µM (inactive)	84.9 µM (inactive)	64.6 µM (inactive)	> 100 µM (inactive)	73.1 µM (inactive)	–
C/C(Nc1ccc(F)cc1)=C1/CCOC1=O	–	> 100 µM (inactive)	–	2.25 µM (inactive)	77.3 µM (inactive)	> 100	> 100 µM (inactive)	12.4 µM (inactive)	> 100 µM (inactive)	> 100 µM (inactive)	> 100 µM (inactive)	> 100 µM (inactive)	–	90.4 µM (inactive)	> 100 µM (inactive)	> 100 µM (inactive)	24.5 µM (inactive)	> 100 µM (inactive)	–	> 100 µM (inactive)
O=c1ccc(=O)c2c1c1[nH]c3ccccc3c1c1c(=O)c3ccccc3c(=O)c21	–	> 10 µM (inactive)	–	> 10 µM (inactive)	> 10 µM (inactive)	> 10	> 10 µM (inactive)	3.85 µM (inactive)	4.92 µM (inactive)	> 10 µM (inactive)	> 10 µM (inactive)	> 10 µM (inactive)	6.71 µM (inactive)	> 10 µM (inactive)	> 10 µM (inactive)	> 10 µM (inactive)	3.24 µM (inactive)	> 10 µM (inactive)	> 10 µM (inactive)	> 10 µM (inactive)
CC1(C)OC2[C@@H](CO[C@@]3([C@@H](O)CCO)OC(C)(C)O[C@@H]23)O1 (some centres not stated)	> 100 µM (inactive)	> 100 µM (inactive)	> 100 µM (inactive)	> 100 µM (inactive)	> 100 µM (inactive)	> 100	> 100 µM (inactive)	> 100 µM (inactive)	> 100 µM (inactive)	> 100 µM (inactive)	> 100 µM (inactive)	> 100 µM (inactive)	> 100 µM (inactive)	–	–	> 100 µM (inactive)	> 100 µM (inactive)	> 100 µM (inactive)	> 100 µM (inactive)	> 100 µM (inactive)
N#CC(C(=O)C(=O)NCCCNC(=O)C(=O)C(C#N)c1ccccc1)c1ccccc1 (configuration not stated)	–	> 100 µM (inactive)	–	> 100 µM (inactive)	> 100 µM (inactive)	> 100	> 100 µM (inactive)	> 100 µM (inactive)	> 100 µM (inactive)	> 100 µM (inactive)	> 100 µM (inactive)	5.33 µM (inactive)	0.0167 µM (active)	> 100 µM (inactive)	–	> 100 µM (inactive)	> 100 µM (inactive)	> 100 µM (inactive)	> 100 µM (inactive)	> 100 µM (inactive)
O=[N+]([O-])c1cc(I)cc(/C=N/NS(=O)(=O)c2ccc(F)cc2)c1O	–	20 µM (inactive)	–	27 µM (inactive)	27.1 µM (inactive)	27.3	21.9 µM (inactive)	28.4 µM (inactive)	28.6 µM (inactive)	22.4 µM (inactive)	19 µM (inactive)	31 µM (inactive)	26.2 µM (inactive)	35.5 µM (inactive)	–	22.1 µM (inactive)	24.7 µM (inactive)	20.7 µM (inactive)	27.5 µM (inactive)	22.3 µM (inactive)

Source: ChEMBL document CHEMBL1201862, “PubChem BioAssay data set” (2004)
